In ChEMBL document CHEMBL1131574, “Specific and irreversible cyclopeptide inhibitors of dipeptidyl peptidase IV activity of the T-cell activation antigen CD26” (J Med Chem, 1998):

Target: Dipeptidyl peptidase 4 (Homo sapiens, UniProt P27487)
Experiment: Inhibitory activity against hydrolysis of Gly-Pro-pNa by CD26 (Dipeptidyl peptidase IV) purified from CEM H01 cells
Format: cell-free, CCRF-CEM

Sequence of Dipeptidyl peptidase 4 (P27487 whole entry): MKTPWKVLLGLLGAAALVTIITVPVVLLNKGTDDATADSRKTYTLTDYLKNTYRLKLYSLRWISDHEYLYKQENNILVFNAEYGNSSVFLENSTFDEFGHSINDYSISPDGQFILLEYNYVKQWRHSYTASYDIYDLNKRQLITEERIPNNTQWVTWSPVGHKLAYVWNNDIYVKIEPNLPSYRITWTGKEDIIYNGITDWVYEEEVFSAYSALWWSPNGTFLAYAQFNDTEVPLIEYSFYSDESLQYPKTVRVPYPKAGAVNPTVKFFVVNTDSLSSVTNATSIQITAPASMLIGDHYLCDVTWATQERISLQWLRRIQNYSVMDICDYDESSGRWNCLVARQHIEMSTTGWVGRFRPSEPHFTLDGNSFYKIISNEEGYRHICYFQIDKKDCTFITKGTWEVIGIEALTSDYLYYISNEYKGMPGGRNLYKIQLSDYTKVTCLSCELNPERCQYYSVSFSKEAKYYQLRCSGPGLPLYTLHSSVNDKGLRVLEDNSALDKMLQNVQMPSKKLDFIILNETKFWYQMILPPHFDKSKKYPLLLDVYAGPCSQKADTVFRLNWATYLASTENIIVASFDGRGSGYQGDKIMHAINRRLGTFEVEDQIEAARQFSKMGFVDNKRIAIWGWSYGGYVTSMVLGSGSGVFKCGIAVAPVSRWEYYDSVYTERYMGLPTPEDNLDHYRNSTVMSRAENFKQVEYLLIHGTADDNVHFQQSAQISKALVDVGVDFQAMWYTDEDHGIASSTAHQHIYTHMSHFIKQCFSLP

## CCCCCCCC[S+](CCCCCCCC)Cc1ccc2cc1C(=O)NCC(=O)NCC(=O)NCCCC[C@H](N)C(=O)N1CCC[C@H]1C(=O)N2
  IC50: 0.03 µM
